The IC50 is the concentration that gives 50% inhibition.

These results are taken from US20240059658A1 (Emory University, priority 2019, published 2024).

The assay deals with EU-1. As to the kind of experiment: WST cytotoxicity assay, cancer cell EU-1. Format: cell-based, human. The settings on record: Homo sapiens, EU-1, EU-1; no other cell line named in the cell; read-out: Cancer cell (EU-1) cytotoxicity IC50. On the procedure: This study used two ALL cell lines (EU-1 and EU-3) and three NB cell lines (NB-1643, SHEP1 and LA1-55N). All 5 cancer cell lines were established from pediatric ALL or NB patients and were well-characterized for their expression of MDM2 and p53-status, as reported previously. All cell lines were grown in standard culture medium (RPMI 1640 containing 10% FBS, 2 mmol/L L-glutamine, 50 U penicillin and 50 μg/mL streptomycin) at 37° C. in a humidified atmosphere containing 5% CO2.
The cytotoxic effect of MX 69 and MX69 analogs on cancer cells was determined using the water-soluble tetrazolium salt (WST) assay. Briefly, cells cultured in 96-well microtiter plates were treated with different concentrations of AQ-101 for a 20-h period. WST (25 μg/well) was then added and incubation continued for an additional 4 h, after which optical density (OD) was read with a microplate reader (test wavelength of 450 nm; reference wavelength of 620 nm).
Take `Cc1ccc(NS(=O)(=O)c2ccc3c(c2)C2NCC[C@H]2[C@@H](c2ccc(S(C)(=O)=O)cc2)N3)cc1C` (stereo partly drawn) [Compound 69L43]: the IC50 was 12 µM. The result for `Cc1ccc(NS(=O)(=O)c2cc3c(cc2Cl)N[C@@H](c2ccc(S(C)(=O)=O)cc2)[C@@H]2CC=C[C@H]32)cc1C` [Compound 69L24] reads over 50 µM; that for `COC(=O)c1ccc([C@H]2Nc3ccc(S(=O)(=O)Nc4ccc(C)c(C)c4)cc3C3OCCC32)cc1` (stereo partly drawn) [Compound 69L12], 3 to 3.9 µM; that for `CC(C)c1cccc(C2CC(=O)c3cc(S(=O)(=O)Nc4ccc5c(c4)CCO5)ccc3N2)c1` (stereo not drawn) [Compound 69L138], 1.4 µM. Then `CCO[C@H]1C[C@H](c2ccc(C(=O)OC)cc2)Nc2ccc(S(=O)(=O)Nc3ccc(C)c(C)c3)cc21` [Compound 69L32], with 7.28 µM; and `Cc1ccc(NS(=O)(=O)c2ccc3c(c2)[C@H]2C=CC[C@H]2[C@H](c2ccc(S(C)(=O)=O)cc2)N3)cc1C` [Compound 69L21], with 6.18 µM. Turning to `COC(=O)c1ccc([C@@H]2Nc3cc(Cl)c(S(=O)(=O)Nc4ccc(C)c(C)c4)cc3[C@H]3C=CC[C@H]32)cc1` [Compound 69L22], the IC50 came to 19.3 µM. The result for `Cc1ccc(N(C)S(=O)(=O)c2ccc3c(c2)[C@H]2OCC[C@H]2[C@H](c2ccc(C(=O)C(C)C)cc2)N3)cc1C` (stereo in doubt) [Compound 69L133, N-(3,4-dimethylphenyl)-4-(4-isobutyrylphenyl)-N-methyl-2,3,3a,4,5,9b-hexahydrofuro[3,2-c]quinoline-8-sulfonamide] reads 1.58 µM; that for `Cc1cc(NS(=O)(=O)c2ccc3c(c2)[C@H]2OCC[C@H]2C(c2ccc(C(=O)C(C)C)cc2)N3)ccc1Cl` (stereo partly drawn) [Compound 69L77], 6.29 µM; that for `CCC(=O)c1cccc(NS(=O)(=O)c2ccc3c(c2)C2OCC[C@H]2C(c2ccc4c(c2)CCO4)N3)c1` (stereo in doubt) [Compound 69L127, 4-(2,3-dihydrobenzofuran-5-yl)-N-(3-propionylphenyl)-2,3,3a,4,5,9b-hexahydrofuro[3,2-c]quinoline-8-sulfonamide], 4.8 µM. On to `Cc1ccc(NS(=O)(=O)c2ccc3[nH]c(-c4ccc(C(=O)C(C)C)cc4)c(I)c(=O)c3c2)cc1C` [Compound 69L97], for which the IC50 came to 9.36 µM. The result for `Cc1ccc(NS(=O)(=O)c2ccc3c(c2)C2OCC[C@@H]2[C@H](c2ccc(C(=O)C(C)C)cc2)N3)cc1C` (stereo partly drawn) [Compound 69L52d] reads 0.5 µM. Then `Cc1cc(NS(=O)(=O)c2ccc3c(c2)C2OCC[C@H]2C(C2CCCCC2)N3)ccc1C(F)(F)F` (stereo partly drawn) [Compound 69L90], with 3.26 µM; and `CC(C)C(=O)c1cccc(C2CC(=O)c3cc(S(=O)(=O)Nc4ccc5c(c4)CCO5)ccc3N2)c1` (stereo not drawn) [Compound 69L140], with 0.23 µM. Then `COC(=O)c1ccc([C@H]2Nc3cc(Cl)c(S(=O)(=O)Nc4ccc(C)c(C)c4)cc3[C@H]3OCC[C@@H]23)cc1` [Compound 69L25], with over 50 µM.

Regarding `CC(C)C(=O)c1cccc(C2CC(=O)c3cc(S(=O)(=O)Nc4cccc5c4COC5=O)ccc3N2)c1` (stereo not drawn) [Compound 69L149], the IC50 turned out to be 0.58 µM. The result for `O=S(=O)(Nc1ccc(C(F)(F)F)c(C(F)(F)F)c1)c1ccc2c(c1)C1OCC[C@H]1C(C1CCCCC1)N2` (stereo partly drawn) [Compound 69L91] reads over 10 µM; that for `Cc1ccc(NS(=O)(=O)c2ccc3c(c2)C(=O)CC(c2cccc(C(=O)C(C)C)c2)N3)cc1C#N` (stereo not drawn) [Compound 69L156], 0.54 µM; that for `Cc1ccc(NS(=O)(=O)c2ccc3c(c2)[C@H]2OCC[C@H]2C(c2ccc(C(=O)C4CC4)cc2)N3)cc1C` (stereo partly drawn) [Compound 69L67], 5.18 µM. For the compound `Cc1ccc(NS(=O)(=O)c2ccc3c(c2)C2NCC[C@H]2[C@H](c2ccc(C(=O)O)cc2)N3)cc1C` (stereo partly drawn) [Compound 69L41], the IC50 is over 50 µM.

For `Cc1ccc(NS(=O)(=O)c2ccc3c(c2)C(O)C[C@H](c2ccc(C(=O)O)cc2)N3)cc1C` (stereo partly drawn) [Compound 69L40], the IC50 was over 50 µM.
